Measured values as given in US10072011B2, “Substituted bridged urea analogs as sirtuin modulators” (GlaxoSmithKline Intellectual Property (No.2) Limited, priority 2014, dated 2018).

Target: T1, SIRT1 (Homo sapiens, UniProt Q96EB6)
T1 sequence (Q96EB6 1-747): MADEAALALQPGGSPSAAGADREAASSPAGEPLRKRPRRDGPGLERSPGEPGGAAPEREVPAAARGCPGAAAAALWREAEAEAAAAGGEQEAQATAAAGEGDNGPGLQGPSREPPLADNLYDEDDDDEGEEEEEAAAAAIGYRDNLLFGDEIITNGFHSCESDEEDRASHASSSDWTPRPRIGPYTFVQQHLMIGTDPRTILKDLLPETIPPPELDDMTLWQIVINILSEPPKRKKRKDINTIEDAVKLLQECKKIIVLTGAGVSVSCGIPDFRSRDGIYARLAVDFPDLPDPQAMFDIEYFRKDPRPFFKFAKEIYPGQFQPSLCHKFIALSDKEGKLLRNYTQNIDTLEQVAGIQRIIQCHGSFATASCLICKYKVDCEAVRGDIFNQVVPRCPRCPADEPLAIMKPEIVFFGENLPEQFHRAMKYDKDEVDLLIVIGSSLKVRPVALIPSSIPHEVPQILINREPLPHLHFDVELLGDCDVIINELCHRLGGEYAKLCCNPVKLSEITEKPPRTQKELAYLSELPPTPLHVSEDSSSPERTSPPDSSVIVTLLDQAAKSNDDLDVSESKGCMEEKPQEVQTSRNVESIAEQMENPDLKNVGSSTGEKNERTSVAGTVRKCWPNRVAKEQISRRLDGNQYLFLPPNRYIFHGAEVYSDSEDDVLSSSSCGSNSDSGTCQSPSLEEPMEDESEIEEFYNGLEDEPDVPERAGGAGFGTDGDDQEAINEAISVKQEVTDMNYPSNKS
Assay: Trp mass spectrometry assay of SIRT1 activation (Ac-R-H-K-K(Ac)-W-NH2 peptide)
Format: biochemical
Conditions: Trp peptide 0.5 μM, 120 μM βNAD+, 10 nM SIRT1, 25 min at 25° C.; for Emax: 25 min, read-out: TRP MAX RESP (percent maximum fold activation)
Experimental: The Trp mass spectrometry assay was conducted as follows. […] The SIRT1 protein was obtained by cloning the SirT1 gene into a T7-promoter containing vector, which was then expressed in BL21(DE3) bacterial cells and purified as described in further detail below. Test compound was added at varying concentrations to this reaction mixture and the resulting reactions were monitored. After the 25 minute incubation with SIRT1, 10 μL of 10% formic acid was added to stop the reaction. The resulting reactions were sealed and frozen for later mass spec analysis. The relative SIRT1 activity was then determined by measuring the amount of O-acetyl-ADP-ribose (OAADPR) formed (or, alternatively, the amount of deacetylated Trp peptide generated) by the NAD-dependent sirtuin deacetylation reaction in the presence of varying concentrations of the test compound versus control reactions lacking the test compound. The degree to which the test agent activated deacetylation by SIRT1 was expressed as EC1.5 (i.e., the concentration of compound required to increase SIRT1 activity by 50% over the control lacking test compound), and Percent Maximum Activation (i.e., the maximum activity relative to control (100%) obtained for the test compound).
This time point was the same as that used for test compounds and, within the linear range, the endpoint represents a change in velocity.
For the above assay, SIRT1 protein was expressed and purified as follows. The SirT1 gene was cloned into a T7-promoter containing vector and transformed into BL21(DE3). The protein was expressed by induction with 1 mM IPTG as an N-terminal His-tag fusion protein at 18° C. overnight and harvested at 30,000×g. Cells were lysed with lysozyme in lysis buffer (50 mM Tris-HCl, 2 mM Tris[2-carboxyethyl]phosphine (TCEP), 10 μM ZnCl2, 200 mM NaCl) and further treated with sonication for 10 min for complete lysis. The protein was purified over a Ni-NTA column (Amersham) and fractions containing pure protein were pooled, concentrated and run over a sizing column (Sephadex S200 26/60 global). The peak containing soluble protein was collected and run on an Ion-exchange column (MonoQ). Gradient elution (200 mM-500 mM NaCl) yielded pure protein. This protein was concentrated and dialyzed against dialysis buffer (20 mM Tris-HCl, 2 mM TCEP) overnight. The protein was aliquoted and frozen at −80° C. until further use.
“NT” means not tested; “ND” means not determinable.

| SMILES | Emax (relative to control (100%)) | TRP Activity (EC1.5, concentration of test compound that results in 150% activation of SIRT1) | TRP MAX RESP (percent maximum fold activation) (relative to control (100%)) |
| --- | --- | --- | --- |
| O=C(NCCO)c1ccc2c(n1)N(C(=O)Nc1ccccn1)[C@H]1CCN2C1 [Example 13, (4S)—N-7-(2-hydroxyethyl)-N-5-(pyridin-2-yl)-3,4-dihydro-1,4-methanopyrido [2,3-b] [1, 4] diazepine-5, 7(2H)-dicarboxamide] | > 150% | – | – |
| O=C(NC1CC1)c1ccc2c(n1)N(C(=O)Nc1cnccn1)[C@H]1CCN2C1 [Example 222, (4S)—N7-cyclopropyl-N5-(pyrazin-2-yl)-3,4-dihydro-1,4-methanopyrido[2,3-b][1,4]diazepine-5,7(2H)-dicarboxamide] | > 150% | B (EC1.5 1-25 μM) | – |
| CCCNC(=O)c1ccc2c(n1)N(C(=O)Nc1ccccn1)[C@H]1CCN2C1 [Example 40, (4S)—N7-propyl-N5-(pyridin-2-yl)-3,4-dihydro-1,4-methanopyrido[2,3-b][1,4]diazepine-5,7(2H)-dicarboxamide] | > 150% | A (EC1.5<1 μM) | – |
| O=C(NCC(F)(F)CO)c1ccc2c(n1)N(C(=O)Nc1ccccn1)[C@H]1CCN2C1 [Example 117, (4S)—N7-(2,2-difluoro-3-hydroxypropyl)-N5-(pyridin-2-yl)-3,4-dihydro-1,4-methanopyrido[2,3-b][1,4]diazepine-5,7(2H)-dicarboxamide] | > 150% | A (EC1.5<1 μM) | – |
| C[C@H](O)CNC(=O)c1ccc2c(n1)N(C(=O)Nc1ccccn1)[C@H]1CCN2C1 [Example 211, (4S)—N7-((S)-2-hydroxypropyl)-N5-(pyridin-2-yl)-3,4-dihydro-1,4-methanopyrido[2,3-b][1,4]diazepine-5,7(2H)-dicarboxamide] | > 150% | B (EC1.5 1-25 μM) | – |
| C[C@H](NC(=O)c1ccc2c(n1)N(C(=O)Nc1cc(-c3cnco3)ccn1)[C@H]1CCN2C1)C(F)(F)F [Example 127, (4S)—N5-(4-(oxazol-5-yl)pyridin-2-yl)-N7-((S)-1,1,1-trifluoropropan-2-yl)-3,4-dihydro-1,4-methanopyrido[2,3-b][1,4]diazepine-5,7(2H)-dicarboxamide] | > 150% | B (EC1.5 1-25 μM) | – |
| C[C@@H](NC(=O)c1ccc2c(n1)N(C(=O)Nc1ccc(OC[C@H](O)CO)cn1)[C@H]1CCN2C1)C(F)(F)F [Example 149, (4S)—N5-(5-((R)-2,3-dihydroxypropoxy)pyridin-2-yl)-N7-((R)-1,1,1-trifluoropropan-2-yl)-3,4-dihydro-1,4-methanopyrido[2,3-b][1,4]diazepine-5,7(2H)-dicarboxamide] | > 150% | A (EC1.5<1 μM) | – |
| C[C@@H](NC(=O)c1ccc2c(n1)N(C(=O)Nc1cc(-c3cn[nH]c3)ccn1)[C@H]1CCN2C1)C(F)(F)F [Example 321, (4S)—N5-(4-(1H-pyrazol-4-yl)pyridin-2-yl)-N7-((R)-1,1,1-trifluoropropan-2-yl)-3,4-dihydro-1,4-methanopyrido[2,3-b][1,4]diazepine-5,7(2H)-dicarboxamide] | < 150% | A (EC1.5<1 μM) | – |
| C[C@@H](NC(=O)c1ccc2c(n1)N(C(=O)Nc1cc(N3CCOC3=O)ccn1)[C@H]1CCN2C1)C(F)(F)F [Example 165, (4S)—N5-(4-(2-oxooxazolidin-3-yl)pyridin-2-yl)-N7-((R)-1,1,1-trifluoropropan-2-yl)-3,4-dihydro-1,4-methanopyrido[2,3-b][1,4]diazepine-5,7(2H)-dicarboxamide] | > 150% | A (EC1.5<1 μM) | – |
| Cc1ccc(NC(=O)N2c3nc(C(=O)NC4CC4)ccc3N3CC[C@H]2C3)nc1 [Example 215, (4S)—N7-cyclopropyl-N5-(5-methylpyridin-2-yl)-3,4-dihydro-1,4-methanopyrido[2,3-b][1,4]diazepine-5,7(2H)-dicarboxamide] | > 150% | B (EC1.5 1-25 μM) | – |
| C[C@@H](NC(=O)c1ccc2c(n1)N(C(=O)Nc1cc(OCCO)ccn1)[C@H]1CCN2C1)C(F)(F)F [Example 132, (4S)—N5-(4-(2-hydroxyethoxy)pyridin-2-yl)-N7-((R)-1,1,1-trifluoropropan-2-yl)-3,4-dihydro-1,4-methanopyrido[2,3-b][1,4]diazepine-5,7(2H)-dicarboxamide] | > 150% | A (EC1.5<1 μM) | – |

Second part, the compound after the results:

| Emax (relative to control (100%)) | TRP Activity (EC1.5, concentration of test compound that results in 150% activation of SIRT1) | TRP MAX RESP (percent maximum fold activation) (relative to control (100%)) | SMILES |
| --- | --- | --- | --- |
| > 150% | B (EC1.5 1-25 μM) | – | NC(CNC(=O)c1ccc2c(n1)N(C(=O)Nc1cc(OC[C@H](O)CO)ccn1)[C@H]1CCN2C1)C(F)(F)F (single isomer, unassigned) [Example 196] |
| > 150% | A (EC1.5<1 μM) | – | CC[C@@H](C)NC(=O)c1ccc2c(n1)N(C(=O)Nc1ccccn1)[C@H]1CCN2C1 [Example 33, (4S)—N7-((R)-sec-butyl)-N5-(pyridin-2-yl)-3,4-dihydro-1,4-methanopyrido[2,3-b][1,4]diazepine-5,7(2H)-dicarboxamide] |
| > 150% | A (EC1.5<1 μM) | – | O=C(NCCO)c1ccnc(NC(=O)N2c3nc(C(=O)NCC(F)(F)F)ccc3N3CC[C@H]2C3)c1 [Example 180, (4S)—N5-(4-((2-hydroxyethyl)carbamoyl)pyridin-2-yl)-N7-(2,2,2-trifluoroethyl)-3,4-dihydro-1,4-methanopyrido[2,3-b][1,4]diazepine-5,7(2H)-dicarboxamide] |
| > 150% | A (EC1.5<1 μM) | – | Cc1cc(C(=O)N[C@H](C)C(F)(F)F)nc2c1N1CC[C@@H](C1)N2C(=O)Nc1ccc(OC[C@@H](O)CO)cn1 [Example 290, (4S)—N5-(5-((S)-2,3-dihydroxypropoxy)pyridin-2-yl)-9-methyl-N7-((R)-1,1,1-trifluoropropan-2-yl)-3,4-dihydro-1,4-methanopyrido[2,3-b][1,4]diazepine-5,7(2H)-dicarboxamide] |
| – | B (EC1.5 1-25 μM) | B (Fold Activation<150%) | O=C(NC1CC1(F)F)c1ccc2c(n1)N(C(=O)Nc1cc(OC[C@H](O)CO)ccn1)[C@H]1CCN2C1 (single isomer, unassigned) [Example 306] |
| > 150% | A (EC1.5<1 μM) | – | NC[C@H](NC(=O)c1ccc2c(n1)N(C(=O)Nc1ccccn1)[C@H]1CCN2C1)C(F)(F)F (single isomer, unassigned) [Example 50] |
| > 150% | A (EC1.5<1 μM) | – | C[C@@H](NC(=O)c1ccc2c(n1)N(C(=O)Nc1ncc3[nH]cnc3n1)[C@H]1CCN2C1)C(F)(F)F [Example 166, (4S)—N5-(7H-purin-2-yl)-N7-((R)-1,1,1-trifluoropropan-2-yl)-3,4-dihydro-1,4-methanopyrido[2,3-b][1,4]diazepine-5,7(2H)-dicarboxamide] |
